# According to patent US8206941B2, “Three part assay for kinase or phosphatase activity” (Hoffmann-La Roche Inc., priority 2005, dated 2012):
# Target: T1, PDHK2 (recombinant pyruvate dehydrogenase kinase 2) (Homo sapiens, UniProt Q15119)
# T1 construct: made in house
# Assay: Fast-TR FRET kinase IMAP assay, ATP dependence of the kinase reaction
# Type: biochemical
# Details: 1 μM Alexa-peptide in the kinase reaction; concentration in the kinase reaction (50 times less in readout); FRET readout 730 (30) nm; FIG. 9; read-out: EC50 of ATP dose response curve
# From the text: • Substrate peptide (YHGHSMSAPGVSTAC (SEQ ID NO: 1)) from Biosyntan labeled with Alexa Fluor 700 • Phosphorylated substrate peptide (YHGHS(H2PO4)MSAPGVSTAC (SEQ ID NO: 1)) from Biosyntan labeled with Alexa Fluor 700 and Ru(batho) 2bpy • Kinase enzyme: PDHK2 (recombinant pyruvate dehydrogenase kinase 2, expressed according to standard methods) • IMAP™ beads from Molecular Devices (IMAP™ Explorer Kit (IPP) Product # R8062) • Buffer: IMAP™ Binding Buffer 1:5 diluted with dest. H2O+0.05% BSA Instrumentation: • Zeiss plate::vision reader • Plate: Costar 384, UV-NBS • Excitation wavelength: 355 nm • Emission filter: 730 (30) nm, 615 (10) nm
# 1 μl of the PDHK2 enzyme was diluted in 11 μl kinase buffer (25 mM Hepes pH 7.4, 150 mM NaCl, 18.7 mM MgCl2, 0.4 mM NH4Ac, 0.025% Triton X-100, 1.87 mM DTT). […] For the readout the final substrate concentration was 20 nM (phosphorylated) Alexa-peptide and with the final ATP concentration of 2 μM the FRET signal should be easily detectable (FIG. 5). […]
# Note that these were the concentrations in the kinase reaction, in the readout they were 50 times less. […] With higher ATP concentrations the signal decreased again due to free ATP in the readout mixture which bound to the IMAP™ beads and thus decreased the binding capacity of the IMAP™ beads. […]
smiles,measurement,value
Nc1ncnc2c1ncn2[C@@H]1O[C@H](COP(=O)(O)OP(=O)(O)OP(=O)(O)O)[C@@H](O)[C@H]1O [ATP],EC50,3.6 µM
